These results are taken from patent publication US20030049597A1, “Chimeric fluorescent enzymes and uses thereof” (priority 2001, published 2003).

Like-named read-outs stand apart in the source and are kept apart here.

Data set [1] addresses T1, PgpGFP (Homo sapiens, UniProt P08183). As to the kind of experiment: Drug mediated microtubule depolymerization in PgpGFP transfected HeLa cells (anti-b-tubulin immunofluorescence). The settings on record: for effect of PgpGFP expression on sensitivity of cells to the drug: microtubule depolymerization, 30 min. The procedure: Cells were plated on 18 mm glass coverslips placed in 12-well dishes. […] For tubulin staining, cells were incubated for 30 minutes in the presence of indicated concentrations of vincristine (Calbiochem), colchicine (Calbiochem) or nocodazole (Sigma). Cells were then fixed, permeabilized, and labeled with 2 μg/ml Cy3-labeled anti-b-tubulin antibody, clone TUB 2.1 (Sigma).
We used a functional assay to quantify the effect of PgpGFP expression on the cytosolic activity of chemotherapeutics. Certain chemotherapeutics, such as colchicine, vincristine and nocodazole, depolymerize microtubules. The state of a cell's microtubules after being treated with these drugs is a measurement of the cellular concentration of the drug. Thus, we examined the microtubules using immunofluorescence against b-tubulin after drug treatment.

The target in data set [2] is T1, PgpGFP.
Method: (§1) HeLa cells (ATCC CCL-2) were cultured as per ATCC recommendations.
(§2) Epifluorescence microscopy was done on an inverted IX-70 microscope (Olympus America, Melville, N.Y.). […] Excitation was provided using a 150 Watt Xenon arc lamp (OptiQuip, Beaver Falls, Pa.). Excitation and emission filters were selected using filter wheels (Ludl Electronic Products, Hawthorne, N.Y.). All filters were from Chroma Technology (Brattleboro, Vt.).
(§3) Confocal microscopy was done on an upright Axiplan 2 microscope with a LSM 510 confocal attachment (Carl Zeiss, Thomwood, N.Y.). Excitation was provided an Argon/Krypton laser with lines at 488 nm and 568 nm and a Helium/Neon laser at 633 nm. The following laser lines and emission filters were used for confocal microscopy: GFP λex=488 nm, λem=500-530 nm, Texas Red, Cy3, TMRE: λex=568 nm, λem=580 nm LP, Fura Red, daunorubicin: λex=488 nm, λem=580 nm LP.
(§4) All fluorescent dyes were from Molecular Probes. Daunorubicin was from Calbiochem. Cells were incubated with the indicated drug or dye for the indicated amount of time in Opti-MEM without phenol red and with 10 mM Hepes (Life Technologies, Rockville, Md.) in a 5% CO2, 37° C. incubator prior to observation.
The target in data set [3] is T1, PgpGFP. As to the kind of experiment: Accumulation of fluorescent drugs and dyes in PgpGFP transfected HeLa cells (fluorescence microscopy). The conditions noted are these: 30 min incubation, 1 μM daunorubicin (confocal), 200 nM Ho342 (epifluorescence).
Method: as §1, §2, §3, §4
In the next data set the target is PgpCFP (Homo sapiens, UniProt P08183). As to the kind of experiment: Accumulation of AM ester dyes in PgpCFP transfected cells (fluorescence microscopy). The settings on record: dyes marked (CFP).
Chain of PgpCFP (P08183 whole entry): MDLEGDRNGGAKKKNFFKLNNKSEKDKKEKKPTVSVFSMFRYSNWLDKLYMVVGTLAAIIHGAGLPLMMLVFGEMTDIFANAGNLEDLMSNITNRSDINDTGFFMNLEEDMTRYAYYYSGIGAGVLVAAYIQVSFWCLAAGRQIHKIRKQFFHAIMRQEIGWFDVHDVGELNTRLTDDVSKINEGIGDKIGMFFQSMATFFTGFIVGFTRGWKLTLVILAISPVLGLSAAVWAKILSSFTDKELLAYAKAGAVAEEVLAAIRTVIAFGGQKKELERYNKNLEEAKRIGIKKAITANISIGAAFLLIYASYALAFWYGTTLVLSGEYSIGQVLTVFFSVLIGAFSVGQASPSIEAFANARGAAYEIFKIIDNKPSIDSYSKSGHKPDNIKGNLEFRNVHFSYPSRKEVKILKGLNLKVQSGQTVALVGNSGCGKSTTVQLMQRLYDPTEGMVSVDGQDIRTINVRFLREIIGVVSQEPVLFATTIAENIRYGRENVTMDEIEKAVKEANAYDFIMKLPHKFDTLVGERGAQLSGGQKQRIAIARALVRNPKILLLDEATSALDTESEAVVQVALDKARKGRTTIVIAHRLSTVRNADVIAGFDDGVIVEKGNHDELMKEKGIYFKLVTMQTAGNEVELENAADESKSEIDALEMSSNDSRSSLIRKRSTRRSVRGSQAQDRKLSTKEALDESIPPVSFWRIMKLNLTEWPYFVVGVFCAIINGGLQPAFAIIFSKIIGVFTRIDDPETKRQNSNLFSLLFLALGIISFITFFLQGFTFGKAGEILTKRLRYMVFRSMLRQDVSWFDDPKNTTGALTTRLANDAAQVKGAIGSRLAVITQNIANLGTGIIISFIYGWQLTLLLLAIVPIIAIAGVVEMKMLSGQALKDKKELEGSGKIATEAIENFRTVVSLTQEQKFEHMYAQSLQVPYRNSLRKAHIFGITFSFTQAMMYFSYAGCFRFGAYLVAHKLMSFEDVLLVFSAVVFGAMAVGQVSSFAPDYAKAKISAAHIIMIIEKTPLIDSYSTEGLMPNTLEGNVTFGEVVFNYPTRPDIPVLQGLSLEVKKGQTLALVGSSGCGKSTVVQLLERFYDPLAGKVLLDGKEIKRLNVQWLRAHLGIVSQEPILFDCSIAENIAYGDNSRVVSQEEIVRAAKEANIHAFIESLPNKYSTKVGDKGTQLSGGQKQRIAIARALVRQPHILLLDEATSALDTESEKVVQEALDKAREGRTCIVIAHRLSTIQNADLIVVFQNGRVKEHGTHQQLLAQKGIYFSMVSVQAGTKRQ

T1 sequence (P08183 whole entry): as above

For `COc1cc2c(c(OC)c1OC)-c1ccc(OC)c(=O)cc1[C@@H](NC(C)=O)CC2` [Colchicine, colchicine], the “Fold resistance (high level PgpGFP expression, drug mediated microtubule depolymerization)” value (“Fold resistance” below) on PgpGFP [1] (high level PgpGFP expression) was 5-25 fold. The “effect of PgpGFP expression on sensitivity of cells to the drug” value at PgpGFP [1] is listed as “decreased the sensitivity”.
In the case of `CC(=O)OCOC(=O)CN(CC(=O)OCOC(C)=O)c1ccc(C)cc1OCCOc1cc2cc(C=C3NC(=S)NC3=O)oc2cc1N(CC(=O)OCOC(C)=O)CC(=O)OCOC(C)=O` [FURA Red AM], the “Effects on fluorescence (effect of PgpGFP expression on accumulation of AM esters)” value at PgpGFP [2] was more than 10 Fold.
Same read-out and setting: the figure for `CC(=O)OCOC(=O)CN(CC(=O)OCOC(C)=O)c1ccc(C)cc1OCCOc1cc2cc(-c3ncc(C(=O)OCOC(C)=O)o3)oc2cc1N(CC(=O)OCOC(C)=O)CC(=O)OCOC(C)=O` [FURA-2 AM] is more than 10 Fold.
`CCOc1ccc(-c2nc3ccc(-c4nc5ccc(N6CCN(C)CC6)cc5[nH]4)cc3[nH]2)cc1` [Ho342, Hoechst 33342]: the “fluorescence lower in PgpGFP expressing cell compared to Pgp negative cell” value at PgpGFP [3] came out at 3 fold.
For the compound `COC(=O)Nc1nc2ccc(C(=O)c3cccs3)cc2[nH]1` [Nocodazole, nocodazole], the “Fold resistance” value at PgpGFP [1] (high level PgpGFP expression) is reported as “None”. The “effect of PgpGFP expression on sensitivity of cells to the drug” value at PgpGFP [1] is “no effect”.
Consider `CC[C@]1(O)C[C@H]2CN(CCc3c([nH]c4ccccc34)[C@@](C(=O)OC)(c3cc4c(cc3OC)N(C=O)[C@H]3[C@@](O)(C(=O)OC)[C@H](OC(C)=O)[C@]5(CC)C=CCN6CC[C@]43[C@@H]65)C2)C1` [Vincristine, vincristine], for which the “Fold resistance” value at PgpGFP [1] was 25-125 fold.
Take Calcein AM: the “Effects on fluorescence (effect of PgpCFP expression on accumulation of AM esters)” value at PgpCFP is recorded as more than 10 Fold.
